Data on one compound can be found in patent US20090044291A1, “DROUGHT-RESISTANT PLANTS AND METHOD FOR PRODUCING THE PLANTS” (D-Helix, priority 2006, published 2009).

pKd: −log10 of the molar value.

The test has as its target T1, Arabidopsis ABAR/CHLH (H subunit of Mg-chelatase) (Arabidopsis thaliana, UniProt Q9FNB0).
T1 construct: 6xHis; made in house; host or cells: Pichia methanolica (Pichia Methanolica Expression kit, Invitrogen)
T1 sequence (Q9FNB0 50-1381): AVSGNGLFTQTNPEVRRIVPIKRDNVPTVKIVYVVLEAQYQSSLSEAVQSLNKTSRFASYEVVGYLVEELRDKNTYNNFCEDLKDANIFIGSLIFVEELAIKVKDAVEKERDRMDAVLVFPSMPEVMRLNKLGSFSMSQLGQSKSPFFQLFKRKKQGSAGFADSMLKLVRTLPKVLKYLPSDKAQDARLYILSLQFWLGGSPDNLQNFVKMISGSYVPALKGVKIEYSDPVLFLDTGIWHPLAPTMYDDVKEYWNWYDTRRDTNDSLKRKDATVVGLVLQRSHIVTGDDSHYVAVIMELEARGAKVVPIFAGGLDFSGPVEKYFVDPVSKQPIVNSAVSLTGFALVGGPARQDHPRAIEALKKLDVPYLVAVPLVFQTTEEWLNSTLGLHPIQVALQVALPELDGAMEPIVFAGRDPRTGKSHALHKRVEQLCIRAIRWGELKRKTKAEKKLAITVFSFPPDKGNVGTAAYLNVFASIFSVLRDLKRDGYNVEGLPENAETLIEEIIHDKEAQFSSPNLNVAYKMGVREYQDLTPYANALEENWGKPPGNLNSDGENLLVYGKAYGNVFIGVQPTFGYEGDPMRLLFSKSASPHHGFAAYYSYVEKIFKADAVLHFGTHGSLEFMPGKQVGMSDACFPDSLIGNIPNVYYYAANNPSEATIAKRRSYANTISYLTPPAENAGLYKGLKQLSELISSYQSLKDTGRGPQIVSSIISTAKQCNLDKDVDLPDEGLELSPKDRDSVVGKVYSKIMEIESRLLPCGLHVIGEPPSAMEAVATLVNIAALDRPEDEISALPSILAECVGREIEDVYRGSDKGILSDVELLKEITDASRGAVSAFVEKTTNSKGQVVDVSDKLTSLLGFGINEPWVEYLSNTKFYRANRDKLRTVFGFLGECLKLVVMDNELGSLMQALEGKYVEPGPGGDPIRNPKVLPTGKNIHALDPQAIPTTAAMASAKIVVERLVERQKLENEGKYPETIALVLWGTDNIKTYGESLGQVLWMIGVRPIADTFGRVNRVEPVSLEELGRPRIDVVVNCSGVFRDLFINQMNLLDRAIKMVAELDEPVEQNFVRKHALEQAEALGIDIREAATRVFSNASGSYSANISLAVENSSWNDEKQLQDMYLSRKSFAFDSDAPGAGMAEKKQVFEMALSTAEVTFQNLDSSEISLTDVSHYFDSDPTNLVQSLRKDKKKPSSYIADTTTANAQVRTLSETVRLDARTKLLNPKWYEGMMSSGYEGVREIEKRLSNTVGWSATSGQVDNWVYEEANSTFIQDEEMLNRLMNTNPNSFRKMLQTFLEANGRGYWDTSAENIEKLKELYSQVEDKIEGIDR
The test is described as follows: ABA binding assay with purified yeast-expressed ABAR/CHLH. The procedure:
Full-length ABAR/CHLH coding sequence was PCR-amplified with forward primer 5′-[…]-3′ (SEQ ID NO:30) and reverse primer 5′-[…]-3′ (SEQ ID NO:31). The recombinant ABAR/CHLH was expressed in yeast as a fusion protein with a 6×His (SEQ ID NO:32) tag by using Pichia Methanolica Expression kit (Invitrogen) and the fusion protein was affinity-purified according to manufacturer's instructions.
The ABA-binding activity of ABAR was assayed according to the previously described procedures (Zhang, D. P. et al., Plant physiol. 128:714-725 (2002)) with modifications. The binding medium (medium A) contained 50 mM Tris-HCl (pH 7.0), 2 mM MgCl2, 1 mM CaCl2, and 250 mM mannitol. The medium for extracting the Arabidopsis natural ABAR/CHLH protein (medium B) was the medium A supplemented with 2 mM 1,4-dithiothreitol (DTT), 1 mM phenylmethyl sulfonyl fluoride (PMSF), […] leupeptin, and […] pepstin A but minus 250 mM mannitol. [^3H](+)ABA (American Radiolabeled Chemicals, 2.37×10^12 Bq mmol^−1, purity 98.4%) at 30 nM, or at a step gradient of concentrations from 0 to 70 nM (when analyzing ABA binding kinetics, see FIG. 1a, d1), together with 2 μg purified yeast-expressed ABAR/CHLH protein or 50 μg proteins of the crude extracts from two-week-old Arabidopsis seedlings, was added into the medium A. The total volume for the binding assays was adjusted to 200 μl. The mixtures were incubated at 25° C. for 30 min, and then quickly placed on ice. Following the addition of 100 μl 0.5% (w/v) Dextran T70-coated charcoal (DCC) to remove the free [^3H]ABA by adsorption, the mixtures were maintained on ice for 5 min, and then centrifuged to remove DCC before the radioactivity in the supernatant was counted. The specific binding was determined by the difference between the radioactivity bound to the immuno-purified ABAR protein or crude extracts of Arabidopsis seedlings incubated only with [^3H]ABA (total binding) and radioactivity bound in the presence of 1,000-fold molar excess of unlabeled (+)-ABA (Sigma; non-specific binding. Non-specific binding in all the assays was lower than 10% of the total binding, see FIG. 1a, d1). The unlabeled ABA was added into the incubation medium at the same time with [^3H]ABA. The ABA-binding activity of the crude ABA-binding protein from Arabidopsis seedling was expressed as the number of nanomoles of [^3H]ABA specifically bound per gram of protein, and that of the immuno-purified ABAR protein as the number of moles of [^3H]ABA per mole of protein. The stereo-specificity of the ABA-binding was assayed as described previously (Zhang, D. P. et al., Plant physiol. 128:714-725 (2002)). […] The conditions of incubation were the same as described above (the incubation medium containing 30 nM [^3H]ABA), and the two ABA isomers and (+)-ABA were assayed in the concentrations ranging from 1 to 1000-fold molar excess of [^3H]ABA.

For `CC1=CC(=O)CC(C)(C)C1(O)/C=C/C(C)=C\C(=O)O` (centres unmarked) [ABA, abscisic acid], the negative-log Kd (pKd) is 7.49. The “maximum binding (Bmax)” value (pure yeast-expressed ABAR, Scatchard plot) is on record as 1.28 mol ABA per mol of protein.
